{
  "source": "patent US12221432B2",
  "about": "“Estrogen receptor antagonist” (CHIA TAI TIANQING PHARMACEUTICAL GROUP CO., LTD., priority 2018, dated 2025)",
  "key": {"[1]": {"experiment": "Metabolic stability in liver microsome (human)", "assay_type": "in vitro ADME, humans", "description": "(§1) Objective: To determine the metabolic stability of test compounds in the liver microsomes of humans, CD-1 5 mice and SD rats (Corning Co., Ltd., Miaotong Biological Technology Co., Ltd., Miaotong Biological Technology Co., Ltd.).\n(§2) Procedures: Firstly, eight 96-well plates were prepared, and named T0, T5, T10, T20, T30, T60, NCF60 and BLANK; except for BLANK (added with buffer at 10 μL/well), the plates were added with the solution of compounds at 10 μL/well. Prepared microsomes were added to the 7 plates (80 μL/well), except for the T0 10 plate. The NCF60 plate was added with the buffer at 10 μL/well, and incubated in a 37° C. water bath, and timing was started:\n(§3) Prepared NADPH cofactor working solution was aliquoted into a 96-well shallow-well plate serving as a loading slot. Each plates was added with the solution to at 10 μL/well by a 96-channel pipette and incubated in a 37° C. water bath to start the reaction:\n(§4) At each time point, termination solution (cold acetonitrile containing 100 ng/mL Tolbutamide and 100 ng/mL Labetalol as internal standard) was added at 300 μL/well to stop the reaction, and the mixture was mixed well; the mixture was centrifuged at 4000 rpm for 20 minutes to precipitate the protein; the supernatant was transferred at 100 μL/well to a new 96-well plate containing 300 μL/well of HPLC water with a 96-channel pipette, and the mixture was mixed well. […]"}, "[2]": {"experiment": "Metabolic stability in liver microsome (CD-1 mouse)", "assay_type": "in vitro ADME, CD-1 mice", "description": "as §1, §2, §3, §4"}, "CYP1A2": {"biological_target": "T1, CYP1A2 (Homo sapiens, UniProt P05177)", "T1 construct": "tissue Corning Co., Ltd; host or cells: human liver microsomes", "T1 sequence (P05177 1-516)": "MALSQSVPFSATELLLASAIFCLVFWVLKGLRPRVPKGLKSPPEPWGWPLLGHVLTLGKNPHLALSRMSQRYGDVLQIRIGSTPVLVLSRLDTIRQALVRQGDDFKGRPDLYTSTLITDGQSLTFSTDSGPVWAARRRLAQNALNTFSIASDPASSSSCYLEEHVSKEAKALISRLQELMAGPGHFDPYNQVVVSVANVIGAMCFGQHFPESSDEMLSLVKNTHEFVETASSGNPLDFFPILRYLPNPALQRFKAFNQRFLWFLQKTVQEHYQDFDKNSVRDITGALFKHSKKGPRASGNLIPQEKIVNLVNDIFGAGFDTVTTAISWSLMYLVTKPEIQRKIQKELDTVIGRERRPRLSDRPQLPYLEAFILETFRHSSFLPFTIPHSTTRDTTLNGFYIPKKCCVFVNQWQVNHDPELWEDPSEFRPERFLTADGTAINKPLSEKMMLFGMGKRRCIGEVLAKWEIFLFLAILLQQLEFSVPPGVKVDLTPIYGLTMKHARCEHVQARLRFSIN", "experiment": "Cytochrome P450 isoenzyme inhibition, CYP1A2", "assay_type": "in vitro ADME", "details": "human liver microsomes; read-out: CYP enzyme inhibition (IC50) 1A2", "text": "(§5) Experimental objective: To determine the inhibitory effect of the test compound on the activity of human liver microsomal cytochrome P450 isoenzymes (CYP1A2, CYP2C9, CYP2C19, CYP2D6 and CYP3A4; Corning Co., Ltd.). […]"}, "CYP2C9": {"biological_target": "T2, CYP2C9 (Homo sapiens, UniProt P11712)", "T2 construct": "tissue Corning Co., Ltd; host or cells: human liver microsomes", "T2 sequence (P11712 whole entry)": "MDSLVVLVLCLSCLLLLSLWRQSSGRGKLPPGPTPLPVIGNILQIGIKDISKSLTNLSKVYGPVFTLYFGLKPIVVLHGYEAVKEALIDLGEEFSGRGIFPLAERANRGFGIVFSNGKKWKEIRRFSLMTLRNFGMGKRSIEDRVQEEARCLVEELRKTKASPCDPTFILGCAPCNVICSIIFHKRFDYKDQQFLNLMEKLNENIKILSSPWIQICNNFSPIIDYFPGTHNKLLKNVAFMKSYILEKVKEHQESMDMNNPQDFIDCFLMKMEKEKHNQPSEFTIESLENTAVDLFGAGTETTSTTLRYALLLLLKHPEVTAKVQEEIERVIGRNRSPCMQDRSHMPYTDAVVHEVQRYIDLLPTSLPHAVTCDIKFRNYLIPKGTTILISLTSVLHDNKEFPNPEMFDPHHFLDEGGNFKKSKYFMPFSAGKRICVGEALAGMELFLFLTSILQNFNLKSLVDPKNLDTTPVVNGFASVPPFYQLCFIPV", "experiment": "Cytochrome P450 isoenzyme inhibition, CYP2C9", "assay_type": "in vitro ADME", "details": "human liver microsomes; read-out: CYP enzyme inhibition (IC50) 2C9", "text": "as §5"}, "CYP2C19": {"biological_target": "T3, CYP2C19 (Homo sapiens, UniProt P33261)", "T3 construct": "tissue Corning Co., Ltd; host or cells: human liver microsomes", "T3 sequence (P33261 whole entry)": "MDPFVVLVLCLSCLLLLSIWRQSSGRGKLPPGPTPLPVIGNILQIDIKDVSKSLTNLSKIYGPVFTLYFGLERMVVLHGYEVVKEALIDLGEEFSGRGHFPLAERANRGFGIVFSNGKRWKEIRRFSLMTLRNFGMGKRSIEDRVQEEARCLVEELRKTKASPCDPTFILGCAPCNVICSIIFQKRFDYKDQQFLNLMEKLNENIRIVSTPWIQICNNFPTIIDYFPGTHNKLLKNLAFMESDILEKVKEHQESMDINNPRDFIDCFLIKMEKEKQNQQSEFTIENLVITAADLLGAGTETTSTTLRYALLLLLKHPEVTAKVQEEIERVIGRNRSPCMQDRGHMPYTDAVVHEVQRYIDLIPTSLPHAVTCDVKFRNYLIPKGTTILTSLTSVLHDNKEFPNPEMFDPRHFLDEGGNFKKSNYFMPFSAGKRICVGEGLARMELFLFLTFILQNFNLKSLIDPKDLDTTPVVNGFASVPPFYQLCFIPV", "experiment": "Cytochrome P450 isoenzyme inhibition, CYP2C19", "assay_type": "in vitro ADME", "details": "human liver microsomes; read-out: CYP enzyme inhibition (IC50) 2C19", "text": "as §5"}, "CYP2D6": {"biological_target": "T4, CYP2D6 (Homo sapiens, UniProt P10635)", "T4 construct": "tissue Corning Co., Ltd; host or cells: human liver microsomes", "T4 sequence (P10635 whole entry)": "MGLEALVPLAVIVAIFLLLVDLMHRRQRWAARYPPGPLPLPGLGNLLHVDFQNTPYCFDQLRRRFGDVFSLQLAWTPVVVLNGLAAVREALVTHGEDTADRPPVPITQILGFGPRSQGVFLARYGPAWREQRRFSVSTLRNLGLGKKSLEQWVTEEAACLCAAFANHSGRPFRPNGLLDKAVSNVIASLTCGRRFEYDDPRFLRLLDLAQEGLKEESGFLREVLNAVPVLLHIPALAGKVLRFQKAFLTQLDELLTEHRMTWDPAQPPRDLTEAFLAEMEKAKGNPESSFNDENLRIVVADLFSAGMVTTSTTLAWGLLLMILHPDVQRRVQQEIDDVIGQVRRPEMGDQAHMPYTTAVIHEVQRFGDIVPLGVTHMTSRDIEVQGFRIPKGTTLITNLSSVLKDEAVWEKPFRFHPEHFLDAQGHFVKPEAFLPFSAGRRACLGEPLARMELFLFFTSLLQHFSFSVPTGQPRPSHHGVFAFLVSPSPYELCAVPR", "experiment": "Cytochrome P450 isoenzyme inhibition, CYP2D6", "assay_type": "in vitro ADME", "details": "human liver microsomes; read-out: CYP enzyme inhibition (IC50) 2D6", "text": "as §5"}},
  "note": "Where a name gives a salt, the structure may show the parent alone.",
  "data": [
    {"compound": "CC/C(=C(/c1ccc(OCCNC/C=C/C(=O)N(C)C)nc1)c1[nH]c2ccccc2c1Cl)c1ccccc1", "note": "[Compound 3 monohydrochloride]", "values": [
      {"measurement": "Stability in liver microsomes", "setting": "[1]", "value": 43},
      {"measurement": "Stability in liver microsomes", "setting": "[2]", "value": 43},
      {"measurement": "IC50", "setting": "CYP1A2", "value": 45.1, "unit": "µM"},
      {"measurement": "IC50", "setting": "CYP2C9", "value": 8.4, "unit": "µM"},
      {"measurement": "IC50", "setting": "CYP2C19", "value": 3.9, "unit": "µM"},
      {"measurement": "IC50", "setting": "CYP2D6", "value": 25.6, "unit": "µM"}
    ]}
  ]
}
